Data from ChEMBL document CHEMBL3351462, “RORγt Modulators Are Potentially Useful for the Treatment of the Immune-Mediated Inflammatory Diseases” (ACS Med Chem Lett, 2014).

Experiments:
[1] = biological target: T1, Nuclear receptor ROR-gamma (Homo sapiens, UniProt P51449); assay: Modulator activity at GAL4-tagged human RORgammat ligand binding domain expressed HEK293T cells by luciferase reporter gene assay; assay type: cell-based, HEK-293T
T1 sequence (P51449 whole entry): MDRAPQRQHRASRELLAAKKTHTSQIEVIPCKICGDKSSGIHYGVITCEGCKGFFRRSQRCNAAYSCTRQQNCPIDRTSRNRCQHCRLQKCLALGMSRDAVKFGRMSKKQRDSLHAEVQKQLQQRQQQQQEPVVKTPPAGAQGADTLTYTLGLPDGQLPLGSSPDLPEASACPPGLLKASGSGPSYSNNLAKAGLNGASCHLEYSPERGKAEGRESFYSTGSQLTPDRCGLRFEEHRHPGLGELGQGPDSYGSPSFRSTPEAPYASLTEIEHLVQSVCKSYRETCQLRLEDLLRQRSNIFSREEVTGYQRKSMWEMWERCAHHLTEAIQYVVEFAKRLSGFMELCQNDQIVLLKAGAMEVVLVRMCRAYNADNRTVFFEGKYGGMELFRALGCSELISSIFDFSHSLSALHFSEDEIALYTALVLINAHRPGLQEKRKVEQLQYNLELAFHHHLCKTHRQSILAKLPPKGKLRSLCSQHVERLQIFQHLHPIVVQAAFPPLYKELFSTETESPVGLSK

T-cell = assay: Inhibition of IL17 production in human CD4-positive T cells incubated for 3 days; assay type: functional, cell-based; settings: 72 h
[2] = biological target: T1, Nuclear receptor ROR-gamma; assay: Binding affinity to human wild type RORgammat ligand binding domain expressed in Escherichia coli by thermofluor assay
[3] = biological target: T2, Nuclear receptor ROR-gamma (Homo sapiens) (UniProt P51449); assay: Modulator activity at GAL4-tagged human RORgammat ligand binding domain expressed HEK293T cells by luciferase reporter gene assay relative to untreated control; assay type: cell-based; settings: HEK-293T, concentration not given here
T2 sequence (whole entry): T1 sequence (P51449 whole entry)

Row | IC50 [1] | IC50 (T-cell) | Kd [2] | inhibition [3] | SMILES
1 | 6.5 nM | 85 nM | 0.83 nM | 85% | OC(c1ccncc1)(c1ccc2nc(Cl)c(Cc3ccc(Cl)cc3)c(Cl)c2c1)c1cncs1 (stereo not given)
2 | – | 25 nM | – | 99% | Cn1cncc1C(O)(c1ccc(C(F)(F)F)nc1)c1ccc2nc(C#N)c(Cc3ccc(-n4cccn4)cc3)c(C#N)c2c1 (stereo not given)
3 | – | 590 nM | – | 72% | Cn1cncc1C(O)(c1ccc(Cl)cc1)c1ccc2nc(Cl)c(Cc3ccccc3)c(Cl)c2c1 (stereo not given)
4 | – | 1.5 nM | – | 94% | COc1nc2ccc(C(O)(c3sc(C)nc3C)c3cnnn3C)cc2c(Cl)c1Cc1ccc(C(F)(F)F)cc1 (stereo not given)
